Assay results from patent publication US20040167226A1, “Methods for the treatment of pain and traumatic injury using benzamides and compositions containing the same” (priority 2002, published 2004).

Columns and labels:
[1] = tested on: fluid percussion brain injury; assay: Lateral fluid percussion injury (FPI) model of traumatic brain injury; assay type: in vivo; conditions: rats
Protocol: Compound A was tested for efficacy in an animal model of traumatic brain injury. Specifically, Compound A was evaluated in the lateral fluid percussion injury (FPI) model developed by McIntosh (McIntosh T. K., et. al (1989), Neuroscience 28:233-244). This model replicates many of the pathological aspects found in humans who have sustained traumatic brain injury. Furthermore, the damage caused by the injury is sensitive to pharmacological intervention, and thus provides a robust method for preclinical efficacy testing. In this model, animals are subjected to a fluid percussion brain injury, and are then given Compound A shortly thereafter. At specific time points, animals are evaluated using outcome measures that assess cognitive and locomoter deficits that are consequences of the injury. In addition, following behavioral analysis, animals are sacrificed and their brains assessed with respect to a variety of histopathological parameters.
For these studies, experimental parameters are used that were previously developed by Dr. Tracy McIntosh, Director of the University of Pennsylvania Head Injury Center. In these studies, male rats (350-400 g) are used for injuries. All animals are injured at a moderate/severe injury level (2.5-3.0 atm) via a craniotomy positioned over the left parietal cortex centered between Bregma and Lambda. […] Following behavioral testing, these animals are sacrificed, and their brains are analyzed for tissue damage (cortical volume loss, and neuronal cell counts), and other histopathological readouts.
The ability of Compound A to restore cognitive deficits in spatial memory and learning is evaluated at 48 hrs post injury using the Morris watermaze paradigm (Smith D. H. et al. (1991), J. Neurotrauma 8(4): 259-269; Schmidt, R. H. et al. (1999), J. Neurotrauma 16(12): 1139-1147). […] In the learning paradigm, the animals are trained to find the platform, and the reduction in latency with increasing number of training sessions is recorded. […]

iNOS = assay: Immunohistochemistry for inflammatory marker iNOS on contused spinal cord; assay type: in vivo; conditions: rats after contusion injury; 72 h post-injury, 1 mm caudal to epicenter
Protocol: Compound A was tested in both the rat dorsal hemisection (Guth, L. et al. (1980), J. Neurosurgery 52: 73-86) and contusion models (Scheff, S. W. (2003), J. Neurotrauma 20: 179-193) for evaluation of efficacy. These models are widely used in the field of spinal cord injury and replicate many of the pathological aspects found in humans who have sustained a spinal cord injury. Rats were subjected to an experimental spinal cord injury at T8, and were given Compound A shortly thereafter. Behavioral tests to assess the locomotion deficits were performed after the lesion. At the end of the experiment, animals were sacrificed and the spinal cord was collected for histopathological analysis. […] Histological assessment of the tissue at the site of injury was also made in both the drug treated and untreated group. In particular, subsequent to the behavioral measurement, spinal cord tissue from each animal was obtained and serial transverse tissue sections were stained with either anti-neurofilament antibody or antibodies specific for the inflammatory markers, tumor necrosis factor alpha (TNFα) and for the inducible form of nitric oxide synthetase (iNOS), followed by incubation with Alexa Fluor®-conjugated secondary antibodies.
Histological assessment of the tissue at the site of injury was also made in both the drug treated and untreated group. […]

Structure (SMILES): CC(=O)Nc1ccc(C(=O)NC(C)(C)C)cc1 [Compound A, N-tert-butyl-4-acetamidobenzamide]
- effects on the other locomotor tests, beam balance and rotating pole (in words) ([1]; Study Number 1, 20 mg/kg/BID i.p. 7 days, 75% PEG 200): limited
- effects on the composite neuroscore (in words) ([1]; Study Number 1, 20 mg/kg/BID i.p. 7 days, 75% PEG 200, acute and long term): robust acute and long term effects
- effects in acute or long term locomotor or cognitive tests (in words) ([1]; Study Number 2, 10 and 20 mg/kg/BID i.p. 5 days, 50% PEG 400 and 25% ethanol): No effects of the compound were observed
- inflammatory marker iNOS in the region of the corticospinal tract vs untreated control (iNOS): decreased
